Experimental data reported in patent US20220023249A1, “Carotenoid Formulation For Increased Bioavailability” (Industrial Organica, SA de CV, priority 2020, published 2022).
Read-outs that look alike come from different tables or passages of the source.

Assays:
[1] = hens; cited from earlier work
[2] = parameters: species or system human; details: in vivo
Text: COAST was a 6-month, double-blind, block-randomized placebo-controlled study involving 81 healthy participants between 18 and 65 years old. Participant recruitment and assessment commenced on December 2017 and ended on December 2018. Recruitment was achieved through local media and advertisement at the Waterford Institute of Technology, local fitness centers, and with employees of an industry based in Waterford, Ireland. […] Every participant enrolled in the study provided written informed consent prior to commencement. The study protocol was approved May 2017 by the Research Ethics Committees of the Waterford Institute of Technology (Waterford, Ireland) and the HSE, South Eastern Area (University Hospital Waterford, Waterford, Ireland). Industrial Orgánica, S.A. de C.V., the manufacturer of the nutritional supplements, had no role in the design of the study, the collection and analysis of the data, or the preparation of manuscripts. All vouch for the accuracy of the data and the fidelity of the study to the protocol. COAST was a five-arm intervention study, where participants were randomly allocated, with equal probability and separately for men and women, to one of four active intervention groups or to a placebo group. Label claims of the nutritional content in the intervention supplements were as follows: Group 1, L (10 mg)+MZ (10 mg)+Z (2 mg) provided in one capsule; Group 2, L (10 mg)+MZ (10 mg)+Z (2 mg) provided in two capsules; […] Therefore, it was decided to present the dosages of the formulations as stated by label claim. […] Serum carotenoid concentrations were analyzed as the total concentrations (μmol/L) for each of the carotenoids in serum. […] Outcome variables were recorded at baseline and at 6 months. […] Calibration lines used, as well as lower and upper limits of quantification (LLOQ and ULOQ respectively), are as previously performed. Serum carotenoid analysis was completed in sixteen independent batches, with a maximum intra-day precision of 7.28%, measured as RSD, and an inter-day precision of 3.16% (RSD). […]

[3] = cited from earlier work

serum response compared to free carotenoid as crystals [2] | SMILES | deposition of carotenoid in egg yolk compared to free form [1] | increase of serum L ([3]; AREDS 2 study) [%] | increase of serum L ([3]; CREST AMD study) [%] | serum response compared to group supplemented with free L ([3]; previous clinical trial) | MPOD improvements compared to free L supplementation ([3]; previous report)
significantly greater | CC(=O)O[C@@H]1CC(C)=C(/C=C/C(C)=C/C=C/C(C)=C/C=C/C=C(C)/C=C/C=C(C)/C=C/C2=C(C)C[C@@H](OC(C)=O)CC2(C)C)C(C)(C)C1 [Zd, (3R,3′R)-zeaxanthin diacetate] | greater capability |  |  |  | 
significantly greater | CC(=O)OC1CC(C)=C(C=CC(C)=CC=CC(C)=CC=CC=C(C)C=CC=C(C)C=CC2=C(C)CC(OC(C)=O)CC2(C)C)C(C)(C)C1 (stereo not drawn) [MZd, meso-zeaxanthin diacetate] | greater capability |  |  |  | 
 | CC1=C[C@H](O)CC(C)(C)[C@H]1/C=C/C(C)=C/C=C/C(C)=C/C=C/C=C(C)/C=C/C=C(C)/C=C/C1=C(C)C[C@@H](O)CC1(C)C [L, (3R,3′R,6R)-lutein, reference compound] |  | 200 | 304 |  | 
remained similar | CC(=O)O[C@@H]1CC(C)=C(/C=C/C(C)=C/C=C/C(C)=C/C=C/C=C(C)/C=C/C=C(C)/C=C/[C@H]2C(C)=C[C@H](OC(C)=O)CC2(C)C)C(C)(C)C1 [Ld, (3R,3′R,6R)-lutein diacetate] | similar |  |  | slightly higher and not statistically different | superior and significant response
